Read-outs that look alike come from different tables or passages of the source.
Assays:
[1] = biological target: T1, IMP-1 (Serratia marcescens, UniProt P52699); assay: Kinetic inhibition assay of IMP-1 (hydrolysis of benzyl penicillin followed at 235 nm), Kic; format: biochemical
Description: The IMP-1 enzyme, lacking the first 21 signal peptide amino acid residues, was expressed and purified using the protocol of Vella et al.[45–46] The reported methods for monitoring of MBLs activities are based on the consequences of the hydrolysis of β-lactam ring of substrates. The MBL-catalysed reaction is usually monitored by following the changing absorbance at the wavelength where the difference in the molar absorptivity, ΔɛM, is maximal or near the maximum value. There are a few β-lactam substrates which can be used for in vitro assays of MBLs inhibitors. CENTA,[47] a type of cephalosporin, and Penicillin G (benzyl penicillin)[48] are well-known substrates due to commercial availability, inexpensive prices and comfort of their syntheses. For this study, Penicillin G was used as CENTA was not compatible with the inhibitor type as reported by Arjomandi et al.[1] The monitoring of hydrolysis of benzyl penicillin by the synthesized compounds was carried out in UV plate at wavelength 235 nm as no chromosphere is released (Figure 7). The concentration of benzyl penicillin is reduced upon hydrolysis by IMP-1 causing a decrease in the absorption at 235 nm over the time, thereby allowing a way to monitor the reaction. Inhibitors of metallo-β-lactamase decrease the rate of hydrolysis of benzyl penicillin, thus, providing a way of measuring the activities of inhibitors against MBLs.
Benzyl penicillin solutions were prepared fresh at the time of assay as their activities will change and stop after 24 h even with keeping in the fridge.[1] In the first step, the inhibitory activities (IC50 values) of the inhibitors 2a–k were measured by a screening assay which evaluated the residual activity of the enzyme. […] Further kinetic analyses then allowed the determination of Kic values of these compounds based on the procedure reported by Arjomandi et al.[1] Inhibition assays for IMP-1 were performed in 96 well 400 µL UV multi-titre plates using a UV multi-plate spectrophotometer. The hydrolysis rate of benzyl penicillin (penicillin G sodium salt) was measured at λ = 235 nm.[49] The initial screening assay (IC50 values) was performed in duplicate, with benzyl penicillin as the substrate and HEPESX (50 mM HEPES, 0.1 M NaCl, […], pH 7.0) as the buffer at 25 °C. The final concentrations of enzyme and benzyl penicillin were 10 nM and 500 µM, respectively. Bovine serum albumin (a final concentration of 20 µg/mL) was added to the enzyme for stability. For each well, 196 µL substrate and 4 µL inhibitor were added followed by the addition of 200 µL of enzyme. The rate of the hydrolysis of substrate was recorded for 5 min. To measure Kic value, four solutions with different concentrations for each molecule were prepared and then were assayed based on the aforementioned procedure while the concentrations of substrate in wells were 200, 400, 600, 800 and 1000 µM. The raw kinetic data were analysed by non-linear regression using the Win Curve Fit program (Kevin Raner Software) and the Kic value was calculated for each molecule.[1] The Kic values of molecules 2a–k are in the range of 1.04–4.77 µM which was unexpected based on the computational modelling results. Although the introduced compounds are still potent enzyme-based inhibitors, they are nearly at least ten times less as potent as the lead inhibitor is. Due to the less inhibition activities of the synthesized molecules in compare to the reference compound, their cell-based assays have not carried out.

[2] = biological target: T1, IMP-1; conditions: read-out: Kic; against IMP-1; reference inhibitor; cited from earlier work

T1 sequence (P52699 22-246 limits assumed): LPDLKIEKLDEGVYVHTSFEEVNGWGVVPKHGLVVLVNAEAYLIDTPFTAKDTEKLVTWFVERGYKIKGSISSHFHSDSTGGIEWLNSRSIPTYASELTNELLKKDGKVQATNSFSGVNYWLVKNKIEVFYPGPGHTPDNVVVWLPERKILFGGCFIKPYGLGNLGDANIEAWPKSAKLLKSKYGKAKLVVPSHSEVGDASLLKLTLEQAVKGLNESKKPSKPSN

With `O=C(CS)N[C@@H](Cc1ccc(OCc2ccccc2Cl)cc1)C(=O)O` [Compound 2d, (S)-3-(4-((2-Chlorobenzyl)oxy)phenyl)-2-(2-mercaptoacetamido)propanoic acid] as the compound, how does the Ki [1] read?
Its Ki is 1810 ± 900 nM.

Which Ki [1] does the source give for `Cc1cccc(COc2ccc(C[C@H](NC(=O)CS)C(=O)O)cc2)c1` [Compound 2b, (S)-2-(2-Mercaptoacetamido)-3-(4-((3-methylbenzyl)oxy)phenyl)propanoic acid] here?
The Ki was 1150 ± 490 nM.

Which Ki [1] does the source give for `Cc1ccc(COc2ccc(C[C@H](NC(=O)CS)C(=O)O)cc2)cc1` [Compound 2c, (S)-2-(2-Mercaptoacetamido)-3-(4-((4-methylbenzyl)oxy)phenyl)propanoic acid] here?
Its Ki is 1070 ± 210 nM.

With `O=C(CS)N[C@@H](Cc1ccc(OCc2ccccc2)cc1)C(=O)O` [Compound 1, L-benzyl tyrosine thiol carboxylic acid] as the compound, how does the Ki [2] read?
Its Ki is 86 ± 24 nM.

For `O=C(CS)N[C@@H](Cc1ccc(OCc2ccc(Br)cc2)cc1)C(=O)O` [Compound 2k, (S)-3-(4-((4-Bromobenzyl)oxy)phenyl)-2-(2-mercaptoacetamido)propanoic acid], which Ki [1] is on record?
Its Ki is 3300 ± 900 nM.

Which Ki [1] does the source give for `O=C(CS)N[C@@H](Cc1ccc(OCc2cccc(Cl)c2)cc1)C(=O)O` [Compound 2e, (S)-3-(4-((3-chlorobenzyl)oxy)phenyl)-2–(2-mercaptoacetamido)propanoic acid] here?
The Ki was 4770 ± 2810 nM.

With `O=C(CS)N[C@@H](Cc1ccc(OCc2ccc([N+](=O)[O-])cc2)cc1)C(=O)O` [Compound 2i, (S)-2-(2-Mercaptoacetamido)-3-(4-((4-nitrobenzyl)oxy)phenyl)propanoic acid] as the compound, how does the Ki [1] read?
Its Ki is 3200 ± 620 nM.

Which Ki [1] does the source give for `Cc1ccccc1COc1ccc(C[C@H](NC(=O)CS)C(=O)O)cc1` [Compound 2a, (S)-2-(2-Mercaptoacetamido)-3-(4-((2-methylbenzyl)oxy)phenyl)propanoic acid] here?
The Ki was 1040 ± 280 nM.

With `O=C(CS)N[C@@H](Cc1ccc(OCc2ccc(Cl)cc2)cc1)C(=O)O` [Compound 2f, (S)-3-(4-((4-Chlorobenzyl)oxy)phenyl)-2-(2-mercaptoacetamido)propanoic acid] as the compound, how does the Ki [1] read?
Its Ki is 3200 ± 590 nM.

Which Ki [1] does the source give for `O=C(CS)N[C@@H](Cc1ccc(OCc2ccccc2[N+](=O)[O-])cc1)C(=O)O` [Compound 2g, (S)-2-(2-Mercaptoacetamido)-3-(4-((2-nitrobenzyl)oxy)phenyl)propanoic acid] here?
Its Ki is 1650 ± 340 nM.

With `O=C(CS)N[C@@H](Cc1ccc(OCc2cccc([N+](=O)[O-])c2)cc1)C(=O)O` [Compound 2h, (S)-2-(2-Mercaptoacetamido)-3-(4-((3-nitrobenzyl)oxy)phenyl)propanoic acid] as the compound, how does the Ki [1] read?
Its Ki is 2860 ± 1230 nM.

With `O=C(CS)N[C@@H](Cc1ccc(OCc2cccc(Br)c2)cc1)C(=O)O` [Compound 2j, (S)-3-(4-((3-Bromobenzyl)oxy)phenyl)-2-(2-mercaptoacetamido)propanoic acid] as the compound, how does the Ki [1] read?
Its Ki is 3140 ± 710 nM.
